Results published in US6369094B1, “Polymorphic salt” (Pfizer Inc., priority 1999, dated 2002).
Converted amounts (≈) assume the structure as drawn. Where a name gives a salt, the structure may show the parent alone.

Experiments:
[1] = as described in European Patent 0776323; cited from earlier work
[2] = type: physicochemical; settings: pH 6
[3] = Hygroscopicity study: moisture sorption by Dynamic Vapour Sorption (DVS); type: physicochemical; settings: 0 to 75% RH, 30° C.
Experimental: The moisture sorptions of the three known polymorphs (α-form, β-form and present invention) of the hemisulphate of 3-(N-methyl-2(R)-pyrrolidinylmethyl)-5-(2-phenylsulphonylethyl)-1H-indole were determined using a Dynamic Vapour Sorption (DVS) Automated Sorption Analyser Model DVS-1 manufactured by Surface Measurements Systems Ltd, UK. Each polymorph was analysed by accurately weighing approximately 25 mg into the sample pan which was then exposed to humidities in the range 0 to 75% RH. The analysis temperature was 30° C. with a nitrogen flow rate of 200 cm^3 min^−1.

[4] = Compression studies in an IR bench press; type: physicochemical; settings: 5 tonnes for 1 minute, 13 mm punch and die set
[5] = Stability study: polymorphic form re-examined by PXRD and DSC; type: physicochemical; settings: stored for seven months under ambient conditions
[6] = listed as hemisulphate polymorph of the present invention

| solubility [2] [mg/mL] | hygroscopicity (moisture sorption) [3, 6] | polymorphic stability (PXRD and DSC) [5] | polymorphic stability (PXRD and DSC) [5, 6] | Compound | colour change and punch filming during tabletting [1] | hygroscopicity [1] | polymorphic stability [1] | hygroscopicity (moisture sorption) [3] | colour change and punch filming upon compression [4] | colour change and punch filming upon compression [4, 6] |
| --- | --- | --- | --- | --- | --- | --- | --- | --- | --- | --- |
| – | – | – | – | CN1CCC[C@@H]1Cc1c[nH]c2ccc(CCS(=O)(=O)c3ccccc3)cc12 [α-polymorph, 3-(N-methyl-2(R)-pyrrolidinylmethyl)-5-(2-phenylsulphonylethyl)-1H-indole] | giving rise to colour change and punch filming | hygroscopic | polymorphically unstable | – | – | – |
| 2.90 | – | – | – | CN1CCC[C@@H]1Cc1c[nH]c2ccc(CCS(=O)(=O)c3ccccc3)cc12 [hydrobromide, 3-(N-methyl-2(R)-pyrrolidinylmethyl)-5-(2-phenylsulphonylethyl)-1H-indole, reference compound] | – | – | – | – | – | – |
| 478 (≈ 1250 mM) | negligible hygroscopicity | totally unchanged | no change in its polymorphic form | CN1CCC[C@@H]1Cc1c[nH]c2ccc(CCS(=O)(=O)c3ccccc3)cc12 [polymorph of the invention, 3-(N-methyl-2(R)-pyrrolidinylmethyl)-5-(2-phenylsulphonylethyl)-1H-indole] | – | – | – | markedly less hygroscopic than either the α- or β-form | no significant colour change and no evidence of punch filming | no significant colour change or punch filming |
